According to patent publication US20130261178A1, “PHENOXYPROPANOL DERIVATIVES AND THEIR USE IN TREATING CARDIAC AND CARDIOVASCULAR DISEASES” (priority 2010, published 2013):

Key:
beta1-adrenoceptor = beta1-adrenoceptor (Homo sapiens, UniProt P08588); test: 3H-CGP12177 whole-cell binding, CHO cells expressing human beta1-adrenoceptor; parameters: expressed in transfected cells; host or cells: CHO cells; details: 3H-CGP 12177 whole cell binding, mean ± s.e.mean; for Kd: log KD, read-out: Beta 1 Log KD (converted)
beta1-adrenoceptor, sequence (P08588 whole entry): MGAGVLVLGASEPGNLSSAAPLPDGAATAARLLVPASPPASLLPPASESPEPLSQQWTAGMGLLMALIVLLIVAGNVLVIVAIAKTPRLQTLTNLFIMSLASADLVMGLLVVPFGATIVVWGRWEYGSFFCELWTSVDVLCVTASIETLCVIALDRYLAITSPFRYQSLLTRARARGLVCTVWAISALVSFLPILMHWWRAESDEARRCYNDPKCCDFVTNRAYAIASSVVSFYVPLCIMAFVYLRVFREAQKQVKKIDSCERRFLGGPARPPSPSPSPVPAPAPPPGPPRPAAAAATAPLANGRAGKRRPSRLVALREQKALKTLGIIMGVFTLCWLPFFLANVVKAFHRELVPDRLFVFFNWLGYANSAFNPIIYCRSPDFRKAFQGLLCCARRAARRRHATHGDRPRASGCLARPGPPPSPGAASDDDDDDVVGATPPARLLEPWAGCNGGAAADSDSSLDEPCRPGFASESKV
Description: (§1) The selectivity of a ligand is given by the ratio of beta-1 to beta-2 KD.

human beta3-adrenoceptor = target: T1, human beta3-adrenoceptor (Homo sapiens, UniProt P13945); test: 3H-CGP12177 whole-cell binding, CHO cells expressing human beta3-adrenoceptor; details: 3H-CGP 12177 whole cell binding, mean ± s.e.mean; for Kd: log KD, read-out: Beta 3 Log KD (converted)
T1 construct: expressed in transfected cells; host or cells: CHO cells
T1 sequence (P13945 whole entry): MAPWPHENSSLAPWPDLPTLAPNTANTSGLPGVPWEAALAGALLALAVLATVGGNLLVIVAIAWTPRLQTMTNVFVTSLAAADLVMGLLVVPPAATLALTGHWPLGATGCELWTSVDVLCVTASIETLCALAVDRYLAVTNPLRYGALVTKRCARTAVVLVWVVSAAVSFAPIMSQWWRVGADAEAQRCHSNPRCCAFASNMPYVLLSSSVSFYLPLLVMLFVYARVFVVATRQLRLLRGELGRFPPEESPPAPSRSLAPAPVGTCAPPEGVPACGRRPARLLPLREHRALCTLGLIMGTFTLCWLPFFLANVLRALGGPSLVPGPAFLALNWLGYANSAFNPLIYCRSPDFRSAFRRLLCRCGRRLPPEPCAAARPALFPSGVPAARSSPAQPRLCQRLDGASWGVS

human beta2-adrenoceptor = target: T2, human beta2-adrenoceptor (Homo sapiens, UniProt P07550); test: 3H-CGP12177 whole-cell binding, CHO cells expressing human beta2-adrenoceptor; details: 3H-CGP 12177 whole cell binding, mean ± s.e.mean; for Kd: log KD, read-out: Beta 2 Log KD (converted)
T2 construct: expressed in transfected cells; host or cells: CHO cells
T2 sequence (P07550 whole entry): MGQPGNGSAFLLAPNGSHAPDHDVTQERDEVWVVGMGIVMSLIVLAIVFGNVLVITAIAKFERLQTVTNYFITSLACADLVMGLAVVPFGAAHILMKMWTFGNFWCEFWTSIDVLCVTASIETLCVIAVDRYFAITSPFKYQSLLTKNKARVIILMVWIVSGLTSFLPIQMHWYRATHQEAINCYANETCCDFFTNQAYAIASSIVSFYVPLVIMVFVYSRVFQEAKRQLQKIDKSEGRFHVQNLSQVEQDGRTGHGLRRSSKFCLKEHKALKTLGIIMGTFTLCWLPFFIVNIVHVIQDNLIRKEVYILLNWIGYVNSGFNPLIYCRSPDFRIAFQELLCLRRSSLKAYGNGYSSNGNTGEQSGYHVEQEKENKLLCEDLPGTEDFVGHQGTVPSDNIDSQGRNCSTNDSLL
Description: as §1

| Compound | Kd (beta1-adrenoceptor) [µM] | Kd (human beta3-adrenoceptor) [µM] | Kd (human beta2-adrenoceptor) [µM] | Beta 1 Log KD (beta1-adrenoceptor) | melting point [°C] | Beta 2 Log KD (human beta2-adrenoceptor) | Beta 3 Log KD (human beta3-adrenoceptor) |
| --- | --- | --- | --- | --- | --- | --- | --- |
| O=C(NCCNCC(O)COc1ccc(OCCOCC2CC2)cc1)Nc1ccc(OCc2ccccc2)cc1 (stereo not drawn) [45a] | 0.0708 | 1.78 | – | – | – | – | – |
| O=C(NCCNCC(O)COc1ccc(OCCOCCc2ccc(F)cc2)cc1)Nc1ccc(O)cc1 (stereo not drawn) [46b] | – | 1.12 | 1.02 | −8.50 ± 0.07 | 113 to 115 | – | – |
| O=C(NCCNCC(O)COc1ccc(OCCOCC2CC2)cc1)Nc1cccc(Cl)c1 (stereo not drawn) [46e, 1-(2-(3-(4-(2-(Cyclopropylmethoxy)ethoxy)phenoxy)-2-hydroxypropylamino)ethyl)-3-(3-chlorophenyl)urea hydroformate] | 0.0295 | 8.51 | 5.75 | – | – | – | – |
| CCOCCOc1ccc(OCC(O)CNCCNC(=O)Nc2cccc(Cl)c2)cc1 (stereo not drawn) [46f, 1-(2-(3-(4-(2-Ethoxyethoxy)phenoxy)-2-hydroxypropylamino)ethyl)-3-(3-chlorophenyl)urea hydroformate] | 0.0316 | 7.24 | 6.31 | – | – | – | – |
| CCOCCOc1ccc(OCC(O)CNCCNC(=O)Cc2ccccc2O)cc1 (stereo not drawn) [46g, N-(2-(3-(4-(2-ethoxyethoxy)phenoxy)-2-hydroxypropylamino)ethyl)-2-(2-hydroxyphenyl)acetamide] | 0.0776 | 10 | 0.537 | – | – | – | – |
| CCOCCOc1ccc(OCC(O)CNCCNC(=O)Cc2cccc(O)c2)cc1 (stereo not drawn) [46h, N-(2-(3-(4-(2-ethoxyethoxy)phenoxy)-2-hydroxypropylamino)ethyl)-2-(3-hydroxyphenyl)acetamide] | 0.0447 | 9.33 | 0.257 | – | – | – | – |
| O=C(Cc1ccc(O)cc1)NCCNCC(O)COc1ccc(OCCOCC2CC2)cc1 (stereo not drawn) [46i, N-(2-(3-(4-(2-(cyclopropylmethoxy)ethoxy)phenoxy)-2 hydroxypropylamino)ethyl)-2-(4-hydroxyphenyl)acetamide] | 0.017 | 3.89 | 0.933 | – | – | – | – |
| O=C(NCCNCC(O)COc1ccc(OCCOC2CCCC2)cc1)Nc1ccccc1 (stereo not drawn) [47a] | 0.0126 | 24 | 3.02 | – | 109 to 115 | – | – |
| Cc1ccccc1NC(=O)NCCNCC(O)COc1ccc(OCCOC2CCCC2)cc1 (stereo not drawn) [47b] | – | 17.4 | – | −7.33 ± 0.03 | 114 to 115 | −6.27 ± 0.02 | – |
| Cc1cccc(NC(=O)NCCNCC(O)COc2ccc(OCCOC3CCCC3)cc2)c1 (stereo not drawn) [47c] | – | 17.4 | – | −8.04 ± 0.04 | – | −6.06 ± 0.03 | – |
| Cc1ccc(NC(=O)NCCNCC(O)COc2ccc(OCCOC3CCCC3)cc2)cc1 (stereo not drawn) [47d] | – | 22.9 | – | −7.76 ± 0.04 | 142 to 144 | – | – |
| COc1ccccc1NC(=O)NCCNCC(O)COc1ccc(OCCOC2CCCC2)cc1 (stereo not drawn) [47e] | – | 13.8 | – | −7.02 ± 0.04 | 78 to 83 | −5.93 ± 0.02 | – |
| COc1cccc(NC(=O)NCCNCC(O)COc2ccc(OCCOC3CCCC3)cc2)c1 (stereo not drawn) [47f] | – | 17.4 | – | −7.76 ± 0.03 | 103 to 110 | −6.05 ± 0.03 | – |
| COc1ccc(NC(=O)NCCNCC(O)COc2ccc(OCCOC3CCCC3)cc2)cc1 (stereo not drawn) [47g] | – | 20 | – | −7.80 ± 0.04 | 121 to 125 | −5.86 ± 0.04 | – |
| O=C(NCCNCC(O)COc1ccc(OCCOC2CCCC2)cc1)Nc1ccccc1F (stereo not drawn) [47h] | – | 21.4 | – | −7.82 ± 0.03 | 115 to 117 | −5.94 ± 0.04 | – |
| O=C(NCCNCC(O)COc1ccc(OCCOC2CCCC2)cc1)Nc1cccc(F)c1 (stereo not drawn) [47i] | – | 18.6 | – | −8.17 ± 0.03 | 108 to 110 | −6.54 ± 0.02 | – |
| O=C(NCCNCC(O)COc1ccc(OCCOC2CCCC2)cc1)Nc1ccc(F)cc1 (stereo not drawn) [47j] | – | 24.5 | – | −7.70 ± 0.04 | 130 to 133 | −5.92 ± 0.09 | – |
| O=C(NCCNCC(O)COc1ccc(OCCOC2CCCC2)cc1)Nc1ccccc1Cl (stereo not drawn) [47k] | – | 18.6 | – | −7.11 ± 0.03 | 99 to 103 | – | – |
| O=C(NCCNCC(O)COc1ccc(OCCOC2CCCC2)cc1)Nc1ccccc1Br (stereo not drawn) [47n] | – | 14.8 | – | −7.11 ± 0.01 | – | −6.10 ± 0.03 | – |
| O=C(NCCNCC(O)COc1ccc(OCCOC2CCCC2)cc1)Nc1cccc(Br)c1 (stereo not drawn) [47o] | – | 10.2 | – | −7.92 ± 0.05 | 120 to 122 | – | – |
| O=C(NCCNCC(O)COc1ccc(OCCOC2CCCC2)cc1)Nc1ccccc1O (stereo not drawn) [47t, 1-(2-(3-(4-(2-(Cyclopentyloxy)ethoxy)phenoxy)-2-hydroxypropylamino)ethyl)-3-(2-hydroxyphenyl)urea] | – | 3.98 | – | −6.99 ± 0.08 | – | – | – |
| O=C(NCCNCC(O)COc1ccc(OCCOC2CCCC2)cc1)Nc1cccc(O)c1 (stereo not drawn) [47u, 1-(2-(3-(4-(2-(Cyclopentyloxy)ethoxy)phenoxy)-2-hydroxypropylamino)ethyl)-3-(3-hydroxyphenyl)urea] | – | 6.92 | – | −7.89 ± 0.06 | – | −5.85 ± 0.06 | – |

| Compound | Kd (beta1-adrenoceptor) [µM] | Kd (human beta3-adrenoceptor) [µM] | Kd (human beta2-adrenoceptor) [µM] | Beta 1 Log KD (beta1-adrenoceptor) | melting point [°C] | Beta 2 Log KD (human beta2-adrenoceptor) | Beta 3 Log KD (human beta3-adrenoceptor) |
| --- | --- | --- | --- | --- | --- | --- | --- |
| O=C(NCCNCC(O)COc1ccc(OCCOC2CCCC2)cc1)c1ccccc1O (stereo not drawn) [54d] | 0.0324 | 4.57 | 0.501 | – | – | – | – |
| O=C(NCCNCC(O)COc1ccc(OCCOC2CCCC2)cc1)c1cccc(O)c1 (stereo not drawn) [54e] | 0.0309 | 1.1 | 0.282 | – | – | – | – |
| O=C(NCCNCC(O)COc1ccc(OCCOC2CCCC2)cc1)c1ccc(O)cc1 (stereo not drawn) [54f] | 0.00174 | 0.513 | 0.162 | – | – | – | – |
| O=C(Cc1cccc(O)c1)NCCNCC(O)COc1ccc(OCCOC2CCCC2)cc1 (stereo not drawn) [54j, N-(2-(3-(4-(2-(cyclopentyloxy)ethoxy)phenoxy)-2-hydroxypropylamino)ethyl)-2-(3-hydroxyphenyl)acetamide] | 0.00372 | 2.51 | 0.0155 | – | – | – | – |
| O=C(Cc1ccc(F)cc1)NCCNCC(O)COc1ccc(OCCOC2CCCC2)cc1 (stereo not drawn) [62i] | 0.00776 | – | 0.178 | – | 114.5 to 115.5 | – | – |
| O=C(Cc1ccccc1Cl)NCCNCC(O)COc1ccc(OCCOC2CCCC2)cc1 (stereo not drawn) [62j] | 0.00347 | – | 0.0575 | – | 113.5 to 114.5 | – | – |
| O=C(Cc1cccc(Cl)c1)NCCNCC(O)COc1ccc(OCCOC2CCCC2)cc1 (stereo not drawn) [62k] | 0.00692 | – | 0.135 | – | 117 to 118 | – | – |
| O=C(Cc1ccc(Cl)cc1)NCCNCC(O)COc1ccc(OCCOC2CCCC2)cc1 (stereo not drawn) [62l] | 0.00759 | – | 0.162 | – | 107 to 109 | – | – |
| O=C(Cc1ccccc1C(F)(F)F)NCCNCC(O)COc1ccc(OCCOC2CCCC2)cc1 (stereo not drawn) [62m] | 0.00955 | – | 0.126 | – | 120.5 to 121.5 | – | – |
| O=C(Cc1cccc(C(F)(F)F)c1)NCCNCC(O)COc1ccc(OCCOC2CCCC2)cc1 (stereo not drawn) [62n] | 0.0132 | – | 0.2 | – | 111.5 to 112.5 | – | – |
| O=C(Cc1ccc(C(F)(F)F)cc1)NCCNCC(O)COc1ccc(OCCOC2CCCC2)cc1 (stereo not drawn) [62o] | 0.00912 | – | 0.214 | – | 132 to 133 | – | – |
| Cc1ccccc1CC(=O)NCCNCC(O)COc1ccc(OCCOC2CCCC2)cc1 (stereo not drawn) [62p] | 0.00955 | – | 0.0724 | – | 119 to 120.5 | – | – |
| Cc1ccc(CC(=O)NCCNCC(O)COc2ccc(OCCOC3CCCC3)cc2)cc1 (stereo not drawn) [62r] | 0.0501 | – | 0.776 | – | 82 to 85 | – | – |
| COc1cccc(CC(=O)NCCNCC(O)COc2ccc(OCCOC3CCCC3)cc2)c1 (stereo not drawn) [62s] | 0.0107 | – | 0.0537 | – | 110 to 113 | – | – |
| O=C(Cc1ccc(O)cc1)NCCNCC(O)COc1ccc(OCCOC2CCCC2)cc1 (stereo not drawn) [62v] | 0.00537 | – | 0.251 | – | 127.5 to 130 | – | – |
| N#Cc1cc(OCCOCC2CC2)ccc1OCC(O)CNCCNC(=O)Nc1ccc(O)cc1 (stereo not drawn) [LK204-545] | – | – | – | – | – | −5.20 ± 0.03 | −4.62 ± 0.09 |
| O=C(Cc1ccccc1)NCCNCC(O)COc1ccc(OCCOC2CCCC2)cc1 (stereo not drawn) [compound 49, N-(2-(3-(4-(2-(Cyclopentyloxy)ethoxy)phenoxy)-2-hydroxypropylamino)ethyl)-2-phenylacetamide Hydroformate] | 0.0038 | 4.37 | 0.0537 | – | – | – | – |
| O=C(Nc1ccccc1)OCCNCC(O)COc1ccc(OCCOC2CCCC2)cc1 (stereo not drawn) [compound 51, 2-(3-(4-(2-(Cyclopentyloxy)ethoxy)phenoxy)-2-hydroxypropylamino)ethyl phenylcarbamate] | 0.0295 | 1.05 | 0.468 | – | – | – | – |
| OC(CNCCNC(=S)Nc1ccccc1)COc1ccc(OCCOC2CCCC2)cc1 (stereo not drawn) [compound 52, 1-(2-(3-(4-(2-(Cyclopentyloxy)ethoxy)phenoxy)-2-hydroxypropylamino)ethyl)-3-phenylthiourea] | 0.0813 | 7.08 | 0.692 | – | – | – | – |
| O=S(=O)(Cc1ccccc1)NCCNCC(O)COc1ccc(OCCOC2CCCC2)cc1 (stereo not drawn) [compound 53, N-(2-(3-(4-(2-(Cyclopentyloxy)ethoxy)phenoxy)-2-hydroxypropylamino)ethyl)-benzylsulfonamide] | 0.0257 | 19.1 | 0.933 | – | – | – | – |
| O=C(NCCNCC(O)COc1ccc(OCCOC2CCCC2)cc1)Nc1ccc(O)c(F)c1 (stereo not drawn) [compound 54, 1-(2-(3-(4-(2-(Cyclopentyloxy)ethoxy)phenoxy)-2-hydroxypropylamino)ethyl)-3-(3-fluoro-4-hydroxyphenyl)urea Hydroformate] | 0.00851 | 10.2 | 2.57 | – | – | – | – |
